The nature of data set [1]: Isolability / rate of nitroxyl release on attempted synthesis. Particulars: electron withdrawing group p-nitrophenyl; nitrosation of 4g with NaNO2 in glacial acetic acid. It is filed as physicochemical. The protocol: It has been found herein that the rate of release is so fast, when the electron withdrawing group on the carbon acid is p-nitrophenyl, e.g., when the compound is (I) below.
The same would be true where the electron withdrawing group is nitro. Thus the compound of the invention excludes the cases where the electron withdrawing group is nitro or p-nitrophenyl.
A freshly prepared solution of aqueous 10M NaNO2 (0.59 ml, 5.9 mmol) is added dropwise with stirring to a cooled (ice/H2O bath) solution of (1.22 g, 4.9 mmol) 4g in glacial acetic acid (1.5 ml). Stirring is continued for 1 hour. The reaction mixture is diluted with the water (5 mL) and precipitates are filtered off at vacuum. The filter cake is washed with water (20 ml), hexane (20 ml) and dried under vacuum to give

In data set [2] the test system is ischemic reperfusion injury. The experiment in a line: Prevention of ischemic reperfusion injury (Working Example V). The format is in vivo, human. The following applies: person, heart attack, bypass surgery; intravenously, blood concentration of 10 nanomolar from 15 minutes before reperfusion up to 20 minutes thereafter. The protocol: A person presents with a heart attack. Blockage is treated with bypass surgery. The patient is give compound (II) intravenously to maintain a blood concentration of 10 nanomolar 15 minutes before reperfusion up to 20 minutes thereafter.

Data set [3] relates to congestive heart failure and a dilated cardiomyopathy. The experiment in a line: Treatment of heart failure (Working Example IV). The format is in vivo, human. The following applies: person with congestive heart failure and dilated cardiomyopathy; intravenously, blood concentration of 10 nanomolar. The protocol: A person with congestive heart failure and a dilated cardiomyopathy is administered compound (II) intravenously (to obtain a blood concentration of 10 nanomolar). Their ejection fraction improves, their blood pressure decreases, and […] pO2 improves on room air. Symptoms of angina also decrease.

“Also recorded” adds a separate entry of the source.

We go through 2 compounds from patent publication US7935847B2, “Nitroxyl ion source with second order reaction nitroxyl release” (Duke University, priority 2007, dated 2011).

Turning to `CC(=O)C(Cc1ccc([N+](=O)[O-])cc1)(N=O)C(C)=O` [Compound (I)], the “stability / isolability (rate of nitroxyl release)” value in data set [1] is on record as “cannot be isolated; also recorded: couldn't be isolated”.
For the compound `CC(=O)C(Cc1ccc(Br)cc1)(N=O)C(C)=O` [Compound (II), 3-(4-bromobenzyl)-3-nitroso-2,4-pentanedione], the ischemic reperfusion injury entry in data set [2] was “does not occur”. In data set [3], the blood pressure entry is “decreases”, the ejection fraction result was “improves”, the “pO2 on room air” value is on record as “improves” and the symptoms of angina result is “decrease”.
